Experimental data as given in the supplement of paper PMC10307832.

Legend:
Assay in all cases: relative viability (nuclei count vs DMSO), 5 days (fraction); higher = more cells survive
RERF-LC-KJ = system: RERF-LC-KJ
Method in brief: (§1)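 Relative viability is defined as nuclei in treated wells over nuclei in vehicle wells. Duplicate plates were run and medians reported. Lung cancer cell lines in 1536-well plates were dosed by pin tool one day after seeding, with one drug or with a fixed anchor-drug dose plus five library-drug doses (not always all listed) in √10 steps, and nuclei were counted after 5 days.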

NCI-H322M = system: NCI-H322M
Method in brief: as §1

NCI-H1755 = system: NCI-H1755
Method in brief: as §1

NCI-H2126 = system: NCI-H2126
Method in brief: as §1

ChaGo-K-1 = system: ChaGo-K-1
Method in brief: as §1

NCI-H1666 = system: NCI-H1666
Method in brief: as §1

NCI-H1944 = system: NCI-H1944
Method in brief: as §1

NCI-H3122 = system: NCI-H3122
Method in brief: as §1

NCI-H1395 = system: NCI-H1395
Method in brief: as §1

LXF-289 = system: LXF-289
Method in brief: as §1

NCI-H1792 = system: NCI-H1792
Method in brief: as §1

Compound: Cc1csc(=NC2CCCCC2)n1/N=C/c1ccc(O)c(O)c1O [MIM1] + CC(=O)Nc1cccc(-n2c(=O)n(C3CC3)c(=O)c3c(Nc4ccc(I)cc4F)n(C)c(=O)c(C)c32)c1 [Trametinib] (partner 0.02 µM)
- relative viability (RERF-LC-KJ; first compound 6.325 µM): 0.56
- relative viability (RERF-LC-KJ; first compound 20 µM): 0.3
- relative viability (NCI-H322M; first compound 0.2 µM): 0.508
- relative viability (NCI-H322M; first compound 0.6325 µM): 0.596
- relative viability (NCI-H322M; first compound 2 µM): 0.456
- relative viability (NCI-H322M; first compound 6.325 µM): 0.526
- relative viability (NCI-H322M; first compound 20 µM): 0.577
- relative viability (NCI-H1755; first compound 0.2 µM): 0.719
- relative viability (NCI-H1755; first compound 0.6325 µM): 0.778
- relative viability (NCI-H1755; first compound 2 µM): 0.808
- relative viability (NCI-H1755; first compound 6.325 µM): 0.7
- relative viability (NCI-H1755; first compound 20 µM): 0.382
- relative viability (NCI-H2126; first compound 0.2 µM): 0.553
- relative viability (NCI-H2126; first compound 0.6325 µM): 0.579
- relative viability (NCI-H2126; first compound 2 µM): 0.598
- relative viability (NCI-H2126; first compound 6.325 µM): 0.503
- relative viability (NCI-H2126; first compound 20 µM): 0.388
- relative viability (ChaGo-K-1; first compound 0.2 µM): 0.889
- relative viability (ChaGo-K-1; first compound 0.6325 µM): 0.913
- relative viability (ChaGo-K-1; first compound 2 µM): 0.876
- relative viability (ChaGo-K-1; first compound 6.325 µM): 0.607
- relative viability (ChaGo-K-1; first compound 20 µM): 0.193
- relative viability (NCI-H1666; first compound 0.2 µM): 0.929
- relative viability (NCI-H1666; first compound 0.6325 µM): 0.833
- relative viability (NCI-H1666; first compound 2 µM): 0.847
- relative viability (NCI-H1666; first compound 6.325 µM): 0.826
- relative viability (NCI-H1666; first compound 20 µM): 0.426
- relative viability (NCI-H1944; first compound 0.2 µM): 0.386
- relative viability (NCI-H1944; first compound 0.6325 µM): 0.462
- relative viability (NCI-H1944; first compound 2 µM): 0.307
- relative viability (NCI-H1944; first compound 6.325 µM): 0.364
- relative viability (NCI-H1944; first compound 20 µM): 0.265
- relative viability (NCI-H3122; first compound 0.2 µM): 0.239
- relative viability (NCI-H3122; first compound 0.6325 µM): 0.244
- relative viability (NCI-H3122; first compound 2 µM): 0.261
- relative viability (NCI-H3122; first compound 6.325 µM): 0.302
- relative viability (NCI-H3122; first compound 20 µM): 0.125
- relative viability (NCI-H1395; first compound 0.2 µM): 0.976
- relative viability (NCI-H1395; first compound 0.6325 µM): 1.04
- relative viability (NCI-H1395; first compound 2 µM): 0.937
- relative viability (NCI-H1395; first compound 6.325 µM): 0.812
- relative viability (NCI-H1395; first compound 20 µM): 0.54
- relative viability (LXF-289; first compound 0.2 µM): 0.625
- relative viability (LXF-289; first compound 0.6325 µM): 0.664
- relative viability (LXF-289; first compound 2 µM): 0.705
- relative viability (LXF-289; first compound 6.325 µM): 0.607
- relative viability (LXF-289; first compound 20 µM): 0.221
- relative viability (NCI-H1792; first compound 0.2 µM): 0.4
- relative viability (NCI-H1792; first compound 0.6325 µM): 0.376
- relative viability (NCI-H1792; first compound 2 µM): 0.456
- relative viability (NCI-H1792; first compound 6.325 µM): 0.384
- relative viability (NCI-H1792; first compound 20 µM): 0.325
